Where a chain is given by its changes, count along the chain named. pKd: −log10 of the molar value.
How the values were obtained:
[1] = target: MAL (Maackia amurensis leukoagglutinin); conditions: reported values [16, 17]; cited from earlier work
[2] = target: T1, Streptococcus pneumoniae NanB fragment (residues 30-697, SEQ ID NO:4) variant Sia-3S1, R193A, D270Q, A538V, E541D (Streptococcus pneumoniae serotype 4, UniProt Q54727, A538V/D270Q/E541D/R193A); test: Bio-layer Interferometry (BLI) binding to immobilized 3′SL and 6′SL; conditions: in words, well-defined buffer conditions (10 mM EPPS, 10 or 25 mM NaCl, pH 7.5)
T1 construct: exemplified by a NanB fragment (residues 30-697); made in house; host or cells: E. coli
T1 sequence (Q54727 30-692 R193A/D270Q/A538V/E541D): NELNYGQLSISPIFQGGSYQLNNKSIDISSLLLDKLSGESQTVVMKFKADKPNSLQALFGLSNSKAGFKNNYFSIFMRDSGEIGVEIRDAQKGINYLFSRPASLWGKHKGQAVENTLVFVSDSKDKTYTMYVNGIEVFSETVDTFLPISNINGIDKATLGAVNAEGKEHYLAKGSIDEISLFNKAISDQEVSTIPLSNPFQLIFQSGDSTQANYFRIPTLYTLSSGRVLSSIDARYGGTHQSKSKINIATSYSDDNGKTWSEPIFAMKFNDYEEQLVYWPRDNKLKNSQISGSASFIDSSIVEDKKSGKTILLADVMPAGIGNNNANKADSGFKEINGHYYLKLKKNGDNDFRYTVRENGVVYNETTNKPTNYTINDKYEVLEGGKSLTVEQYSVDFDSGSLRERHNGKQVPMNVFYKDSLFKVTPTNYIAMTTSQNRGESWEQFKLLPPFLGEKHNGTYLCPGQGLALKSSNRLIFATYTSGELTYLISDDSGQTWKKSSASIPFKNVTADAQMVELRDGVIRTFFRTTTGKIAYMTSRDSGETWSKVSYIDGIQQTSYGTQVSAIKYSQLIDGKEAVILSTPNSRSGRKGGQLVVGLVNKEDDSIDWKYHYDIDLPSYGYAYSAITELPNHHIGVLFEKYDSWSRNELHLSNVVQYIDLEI
Method: FIGS. 14A and […] show BLI sensograms for the binding of Sia-3S1 (analyte) under different buffer conditions to oligosaccharides (immobilized ligands): 3′SL=α2,3-sialyllactose, 6′SL=α2,6-sialyllactose.
(§1) The flowchart presented in FIG. 2 outlines schematically the methods employed in Example I and II to screen, optimize and select the Lectenz® candidates. The specificity and affinity of potential Lectenz® candidates is evaluated through structurally-guided site-specific and/or site-saturation mutagenesis assays designed to enable the selection of optimal clones. Bio-layer Interferometry (BLI) is used to determine the binding kinetics and affinities for binding to glycans and glycoproteins. Affinity chromatography is performed by immobilizing the Lectenz® candidates in a column format to evaluate their ability to fractionate sialylated- and asialo-glycans and glycoconjugates. All promising Lectenz® candidates are screened against the glycan array at the CFG, which currently contains over 600 O- and N-linked glycans.
The methods are as described in Example I.

[3] = target: T2, Streptococcus pneumoniae NanB fragment (residues 30-697, SEQ ID NO:4) variant Sia-PS4, E541A (Streptococcus pneumoniae serotype 4, UniProt Q54727, E541A); test: Bio-layer Interferometry (BLI) steady-state binding to immobilized oligosaccharides; conditions: in words
T2 construct: exemplified by a NanB fragment (residues 30-697); poly-histidine; made in house; host or cells: pET28a+ based plasmid
T2 sequence (Q54727 30-692 E541A): T1 sequence (Q54727 30-692 R193A/D270Q/A538V/E541D) with A164R, Q241D, V509A, D512A
From the text: Lsp=lactose (no sialic acid), 3′SL=α2,3-sialyllactose, 6′SL=α2,6-sialyllactose, GD3=GD3 oligosaccharide that contains a terminal α2,8-linked Neu5Ac residue and an internal α2,3-linked Neu5Ac residue.
The pan-specific sialic acid-recognizing affinity reagent of the invention is exemplified by a NanB fragment (residues 30-697; SEQ ID NO:4) with a single mutation. Exemplary mutation sites include Y653, D270, and E541. Exemplary pan-specific affinity reagents, each having a single mutation in the NanB GH domain as noted, are shown in Table 2 and include Sia-PS1 (Y653F), Sia-PS2 (D270A), Sia-PS3 (D270N), Sia-PS4 (E541A), and Sia-PS5 (E541Q). […] They reduce (Sia-PS2 and Sia-PS3) or effectively eliminate (Sia-PS1, Sia-PS4, and Sia-PS5) catalytic activity, and they broaden specificity for sialic acid ligand binding. The pan-specific sialic acid-recognizing affinity reagent we chose for further validation study was Sia-PS1 that contains the Y653F at active site residue Tyr653. This one mutation, which involves removal of a single hydroxyl group, not only eliminates enzyme activity, but astonishingly introduces pan-specific binding into the mutated, inactivated enzyme, despite its distance from the carbohydrate binding module (CBM) domain of the NanB.
as §1
Steady-state binding constants between Lectenz® candidates and sialic acid ligands were measured by BLI.

SNA (S. Nigra lectin) = conditions: reported values [16]; cited from earlier work

Row | Structure (SMILES) | pKd [1] | affinity [2] | KD value [3] | binding affinity [3] | pKd (SNA (S. Nigra lectin))
1 | CC(=O)N[C@H]1[C@H]([C@H](O)[C@H](O)CO)O[C@@](O[C@H]2[C@@H](O)[C@@H](CO)O[C@@H](O[C@H]3[C@H](O)[C@@H](O)C(O)O[C@@H]3CO)[C@@H]2O)(C(=O)O)C[C@@H]1O (stereo partly drawn) [3′SL, α2,3-sialyllactose] | 5.52 to 6.00 | high and preferential affinity for 3′SL over 6′SL | sub-micromolar | micromolar or sub-micromolar | –
2 | CC(=O)N[C@H]1[C@H]([C@H](O)[C@H](O)CO)O[C@@](OC[C@H]2O[C@@H](O[C@H]3[C@H](O)[C@@H](O)C(O)O[C@@H]3CO)[C@H](O)[C@@H](O)[C@H]2O)(C(=O)O)C[C@@H]1O (stereo partly shown) [6′SL, 6′-sialyllactose (Neu5Acα2,6Galβ1, 4Glcβ, or 6′SL)] | – | – | – | micromolar or sub-micromolar | 6.05 to 6.22
3 | CC(=O)N[C@H]1[C@H]([C@H](O)[C@H](O)CO)O[C@@](O[C@H](CO)[C@@H](O)[C@@H]2O[C@@](O[C@H]3[C@@H](O)[C@@H](CO)O[C@@H](O[C@H]4[C@H](O)[C@@H](O)C(O)O[C@@H]4CO)[C@@H]3O)(C(=O)O)C[C@H](O)[C@H]2NC(C)=O)(C(=O)O)C[C@@H]1O (stereo partly shown) [GD3, Neu5Acα2,8Neu5Acα2,3Galβ1, 4Glcβ] | – | – | – | micromolar or sub-micromolar | –

From US11434479B2, “Sialic acid binding polypeptide” (priority 2017, dated 2022)
